Test results taken from patent US11999746B2, “Compounds” (GlaxoSmithKline Intellectual Property Development Limited, priority 2014, dated 2024).

Tests used:
Lp-PLA2 in human plasma = target: T1, Lp-PLA2 in human plasma (Homo sapiens, UniProt Q13093); assay: (3b) Lp-PLA2 human plasma alternative Thio-PAF assay; type: biochemical; conditions: (3b) alternative Thio-PAF assay, pooled human plasma; Examples of 266-412 were tested here; read-out: pIC50 in the Lp-PLA2 human plasma assay (converted)
T1 construct: from tissue; host or cells: pooled human plasma
T1 sequence (Q13093 22-441): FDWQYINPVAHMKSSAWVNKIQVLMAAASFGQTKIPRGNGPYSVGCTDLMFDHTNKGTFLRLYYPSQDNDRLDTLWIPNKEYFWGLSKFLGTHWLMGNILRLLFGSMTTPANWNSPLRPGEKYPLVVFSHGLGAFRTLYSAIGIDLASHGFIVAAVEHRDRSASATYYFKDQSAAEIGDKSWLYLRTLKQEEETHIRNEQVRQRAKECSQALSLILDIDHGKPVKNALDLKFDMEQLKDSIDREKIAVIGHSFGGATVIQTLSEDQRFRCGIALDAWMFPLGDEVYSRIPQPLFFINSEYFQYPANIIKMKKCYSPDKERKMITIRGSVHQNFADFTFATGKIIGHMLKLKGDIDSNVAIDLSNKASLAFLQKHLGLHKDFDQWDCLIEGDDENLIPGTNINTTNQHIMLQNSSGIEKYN
Procedure: (3b) Alternative Thio-PAF Assay
The human plasma assay utilizes the same thioester analog of PAF as described in (1b) “hr ThioPAF” assay. This assay may detect the activity of Lp-PLA2 in human plasma, as determined by specific inhibition by Lp-PLA2 inhibitors.
The thio-PAF assay was run as a quenched 20 μL assay. Compounds source plate was prepared by making 1:3 (by volume) serial dilution of the compounds into pure DMSO on 96-well microplate. 5 μL of compounds on compound source plate were transferred to 96-well Corning 3686 (black) low-volume plates by STAR+(Hamilton) liquid dispenser. 10 μL pooled human plasma, which was previously aliquoted and frozen, was added. Plates were centrifuged for 30 sec at 1000 rpm. After 15 minutes preincubation at room temperature, 5 μL of substrate solution comprising 2 mM 2-thio-PAF [from ethanol stock], 52 μM CPM [from a DMSO stock] and 2.5 mM NEM (N-ethylmaleimide) [made fresh daily in DMSO] in assay buffer (50 mM HEPES, pH 7.4, 150 mM NaCl, 1 mM CHAPS) was added to 96-well Corning 3686 (black) low-volume plates. After 3 mins, reaction was quenched with 10 μL of 5% aqueous trifluoroacetic acid (TFA). Plates were centrifuged 30 sec at 1000 rpm, covered to protect from light and incubated for 10 min at room temperature. Plates were read at ex: 380 nm/em: 485 nm using Envision plate reader (Perkin Elmer). Raw data were transferred to Excel software and pIC50 data, curve and QC analysis was conducted by using XL fit module in Excel.

[1] = target: T2, recombinant human Lp-PLA2 (Homo sapiens, UniProt Q13093); assay: (1b) hrThioPAF assay, recombinant human Lp-PLA2; type: biochemical; conditions: Examples 266-412 were tested here, one experiment or average of multiple experiments, read-out: rhLp-PLA2 (pIC50) (converted)
T2 sequence (Q13093 22-441): T1 sequence (Q13093 22-441)
Summary of the method: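 Fluorogenic assay: 20 pM rhLp-PLA2 in 50 mM HEPES pH 7.4, 150 mM NaCl, 1 mM CHAPS with 1:3 serially diluted compounds; substrate mix of 40 μM 2-thio-PAF, 40 μM CPM, 400 μM NEM (pre-addition levels). 20 min at 25 °C in the dark; fluorescence ex 380/em 485 nm, pIC50 by curve fitting.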

Row | IC50 (Lp-PLA2 in human plasma) [nM] | IC50 [1] [nM] | Structure (SMILES)
1 | ≤ 100 | ≤ 10000 | CCCC(=O)N1CCN2c3cc(OCc4ccc(F)c(C#N)c4)nc(=O)n3CC2C1 (centres unmarked) [Example E291, 5-(((2-Butyryl-9-oxo-2,3,4,9,11,11a-hexahydro-1H-pyrazino[1′,2′:3,4]imidazo[1,2-c]pyrimidin-7-yl)oxy)methyl)-2-fluorobenzonitrile 2,2,2-trifluoroacetate]
2 | ≤ 100 | ≤ 10000 | NC1(C(=O)N2CCN3c4cc(OCc5ccc(F)c(F)c5)nc(=O)n4CC3C2)CCCCC1 (centres unmarked) [Example E347, 2-(1-Aminocyclohexanecarbonyl)-7-((3,4-difluorobenzyl)oxy)-3,4,11,11a-tetrahydro-1H-pyrazino[1,2′:3,4]imidazo[1,2-c]pyrimidin-9(2H)-one]
3 | ≤ 100 | ≤ 10000 | CCS(=O)(=O)N1CCN2c3cc(OCc4ccc(F)c(C#N)c4)nc(=O)n3CC2C1 (centres unmarked) [Example E283, 5-(((2-(Ethylsulfonyl)-9-oxo-2,3,4,9,11,11a-hexahydro-1H-pyrazino[1,2′:3,4]imidazo[1,2-c]pyrimidin-7-yl)oxy)methyl)-2-fluorobenzonitrile]
4 | ≤ 100 | ≤ 10000 | N#Cc1cc(COc2cc3n(c(=O)n2)C[C@@H]2C[C@H](N)CN32)ccc1F [Example E391, 5-((((7S,8aS)-7-Amino-1-oxo-1,6,7,8,8a,9-hexahydropyrrolo[1′,2′:3,4]imidazo[1,2-c]pyrimidin-3-yl)oxy)methyl)-2-fluorobenzonitrile]
5 | ≤ 100 | ≤ 10000 | CN(C)CC(=O)N1CCN2c3cc(OCc4ccc(F)c(C#N)c4)nc(=O)n3CC2C1 (centres unmarked) [Example E284, 5-(((2-(2-(Dimethylamino)acetyl)-9-oxo-2,3,4,9,11,11a-hexahydro-1H-pyrazino[1,2′:3,4]imidazo[1,2-c]pyrimidin-7-yl)oxy)methyl)-2-fluorobenzonitrile]
6 | ≤ 100 | ≤ 10000 | CN(C)CC(=O)N1CCN2c3cc(OCc4ccc(F)c(F)c4)nc(=O)n3CC2C1 (centres unmarked) [Example E346, 7-((3,4-Difluorobenzyl)oxy)-2-(2-(dimethylamino)acetyl)-3,4,11,11a-tetrahydro-1H-pyrazino[1,2′:3,4]imidazo[1,2-c]pyrimidin-9(2H)-one]
7 | ≤ 100 | ≤ 100 | Cc1ccc(Oc2c(F)cc(COc3cc4n(c(=O)n3)CC3(CCOCC3)N4C)cc2F)cn1 [Example 405, 7-((3,5-Difluoro-4-((6-methylpyridin-3-yl)oxy)benzyl)oxy)-1-methyl-2′,3′,5′,6′-tetrahydro-1H-spiro[imidazo[1,2-c]pyrimidine-2,4′-pyran]-5(3H)-one]
8 | ≤ 100 | ≤ 10000 | N#Cc1cc(COc2cc3n(c(=O)n2)CC2CN(CC(F)(F)F)CCN32)ccc1F (centres unmarked) [Example E322, 2-Fluoro-5-(((9-oxo-2-(2,2,2-trifluoroethyl)-2,3,4,9,11,11a-hexahydro-1H-pyrazino[1′,2′:3,4]imidazo[1,2-c]pyrimidin-7-yl)oxy)methyl)benzonitrile]
9 | ≤ 100 | ≤ 10000 | O=C([C@@H]1CCCN1)N1CCN2c3cc(OCc4ccc(F)c(F)c4)nc(=O)n3CC2C1 (stereo partly drawn) [Example E340, 7-((3,4-Difluorobenzyl)oxy)-2-((S)-pyrrolidine-2-carbonyl)-3,4,11,11a-tetrahydro-1H-pyrazino[1,2′:3,4]imidazo[1,2-c]pyrimidin-9(2H)-one]
10 | ≤ 100 | ≤ 10000 | O=c1nc(OCc2ccc(F)c(F)c2)cc2n1CC1COCCN21 (centres unmarked) [Example E336, 7-((3,4-Difluorobenzyl)oxy)-3,4,11,11a-tetrahydropyrimido[6′,1′:2,3]imidazo[5,1-c][1,4] oxazin-9(1H)-one]
11 | ≤ 100 | ≤ 10000 | Cc1ccc(Oc2c(F)cc(COc3cc4n(c(=O)n3)CC3(COC3)N4)cc2F)cn1 [Example E394, 7-((3,5-Difluoro-4-((6-methylpyridin-3-yl)oxy)benzyl)oxy)-1H-spiro[imidazo[1,2-c]pyrimidine-2,3′-oxetan]-5(3H)-one]
12 | ≤ 100 | ≤ 10000 | CN1CCN2c3cc(OCc4ccc(F)c(F)c4)nc(=O)n3CC2C1 (centres unmarked) [Example E320, 7-((3,4-Difluorobenzyl)oxy)-2-methyl-3,4,11,11a-tetrahydro-1H-pyrazino[1,2′:3,4]imidazo[1,2-c]pyrimidin-9(2H)-one]
13 | ≤ 100 | ≤ 100 | O=c1nc(OCc2ccc(Oc3ccnc(C(F)(F)F)c3)c(F)c2)cc2n1CC1CNCCN21 (centres unmarked) [Example E267, 7-((3-Fluoro-4-((2-(trifluoromethyl)pyridin-4-yl)oxy)benzyl)oxy)-3,4,11,11a-tetrahydro-1H-pyrazino[1′,2′:3,4] imidazo [1,2-c]pyrimidin-9(2H)-one]
14 | ≤ 100 | 0.501 | O=C1CN2c3cc(OCc4cc(F)c(Oc5cncc(C(F)(F)F)c5)c(F)c4)nc(=O)n3CC2CN1 (centres unmarked) [Example E352, 7-((3,5-Difluoro-4-((5-(trifluoromethyl)pyridin-3-yl)oxy)benzyl)oxy)-11,11a-dihydro-1H-pyrazino[1,2′:3,4]imidazo[1,2-c]pyrimidine-3,9(2H,4H)-dione]
15 | ≤ 100 | ≤ 10000 | O=C([C@H]1CCCN1)N1CCN2c3cc(OCc4ccc(F)c(F)c4)nc(=O)n3CC2C1 (stereo partly drawn) [Example E343, 7-((3,4-Difluorobenzyl)oxy)-2-((R)-pyrrolidine-2-carbonyl)-3,4,11,11a-tetrahydro-1H-pyrazino[1,2′:3,4]imidazo[1,2-c]pyrimidin-9(2H)-one]
16 | ≤ 100 | ≤ 10000 | O=c1nc(OCc2ccc(F)c(F)c2)cc2n1CC1CN(S(=O)(=O)C3CC3)CCN21 (centres unmarked) [Example E331, 2-(Cyclopropylsulfonyl)-7-((3,4-difluorobenzyl)oxy)-3,4,11,11a-tetrahydro-1H-pyrazino[1′,2′:3,4]imidazo[1,2-c]pyrimidin-9(2H)-one]
17 | ≤ 100 | ≤ 10000 | O=C([C@@H]1CCN1)N1CCN2c3cc(OCc4ccc(F)c(F)c4)nc(=O)n3CC2C1 (stereo partly drawn) [Example E339, 2-((S)-azetidine-2-carbonyl)-7-((3,4-difluorobenzyl)oxy)-3,4,11,11a-tetrahydro-1H-pyrazino[1′,2′:3,4]imidazo[1,2-c]pyrimidin-9(2H)-one]
18 | ≤ 100 | ≤ 10000 | N#Cc1cc(COc2cc3n(c(=O)n2)CC2CNC(=O)CN32)ccc1F (centres unmarked) [Example E349, 5-(((3,9-Dioxo-2,3,4,9,11,11a-hexahydro-1H-pyrazino[1′,2′:3,4]imidazo[1,2-c]pyrimidin-7-yl)oxy)methyl)-2-fluorobenzonitrile]
19 | ≤ 100 | ≤ 10000 | COC(=O)N1CCN2c3cc(OCc4ccc(F)c(F)c4)nc(=O)n3CC2C1 (centres unmarked) [Example E300, Methyl 7-((3,4-difluorobenzyl)oxy)-9-oxo-3,4,11,11a-tetrahydro-1H-pyrazino[1′,2′:3,4]imidazo[1,2-c]pyrimidine-2(9H)-carboxylate]
20 | ≤ 100 | ≤ 10000 | O=c1nc(OCc2cc(F)c(Oc3cncc(C(F)(F)F)c3)c(F)c2)cc2n1CC1CS(=O)(=O)CCN21 (centres unmarked) [Example E373, 7-((3,5-Difluoro-4-((5-(trifluoromethyl)pyridin-3-yl)oxy)benzyl)oxy)-3,4,11,11a-tetrahydropyrimido[6′,1′:2,3]imidazo[5,1-c][1,4]thiazin-9(1H)-one 2,2-dioxide]
21 | ≤ 100 | ≤ 100 | N#Cc1cc(COc2cc3n(c(=O)n2)CC2CSCCN32)ccc1F (centres unmarked) [Example E364, 2-Fluoro-5-(((9-oxo-1,3,4,9,11,11a-hexahydropyrimido[6′,1′:2,3]imidazo[5,1-c][1,4]thiazin-7-yl)oxy)methyl)benzonitrile]
22 | ≤ 100 | ≤ 10000 | CN1c2cc(OCc3cc(F)c(Oc4cnn(C)c4)c(F)c3)nc(=O)n2CC12COC2 [Example E397, 7-((3,5-Difluoro-4-((1-methyl-1H-pyrazol-4-yl)oxy)benzyl)oxy)-1-methyl-1H-spiro[imidazo[1,2-c]pyrimidine-2,3′-oxetan]-5(3H)-one]
